Reference: patent US11638707B2, “Substituted amino triazoles useful as chitinase inhibitors” (Molecure S.A., priority 2019, dated 2023)

Key:
recombinant human CHIT1 = recombinant human CHIT1 (Homo sapiens (Human), UniProt Q13231); assay: Human CHIT1 activity assay; assay type: biochemical; conditions: recombinant human CHIT1, citrate buffer pH 5.2, 37° C., 60 minutes; read-out: hCHIT1, IC50
Method: (§1) The assay was run in the 96-well plate format, each reaction in the total volume of 100 μL. 4-methylumbelliferyl β-D-N,N′,N″-triacetylchitotriose was used as a substrate for the enzyme. Upon hydrolysis by CHIT1, the substrate releases 4-methylumbelliferyl (4MU) that, when ionized in basic pH, emits fluorescence at 460 nm. Briefly, 40 μL of a substrate was added to each well, followed by 10 μL of compound dilution and 50 μL of CHIT1 recombinant enzyme solution. The reaction was carried out in citrate buffer, pH 5.2, in the dark, at 37° C. for 60 minutes with shaking. […] The IC50 values were calculated using GraphPad Prism.

recombinant human AMCase = recombinant human AMCase (Homo sapiens (Human), UniProt Q9BZP6); assay: Human AMCase activity assay; assay type: biochemical; conditions: citrate buffer pH 5.2, 37° C., 60 minutes, read-out: hAMCase, IC50
Method: as §1, with “4-Methylumbelliferyl B-D-N,N′-diacetylchitobioside hydrate” for “4-methylumbelliferyl β-D-N,N′,N″-triacetylchitotriose”, “AMCase,” for “CHIT1,”, “hAMCase” for “CHIT1”

hERG channel = hERG channel (Homo sapiens (Human), UniProt Q12809); assay: Human ERG channel binding assay (fluorescence polarization); conditions: Table 1; tracer displacement, 4 h at room temperature
Method: Human ERG Channel Binding Assay
Fluorescence polarization assay based on the principle of fluorescence polarization where a red-shifted fluorescent tracer is displaced from the hERG channel by compounds that bind to the channel was used to establish the binding of the compounds to hERG channel. […] Briefly, the compounds in serial dilutions were incubated with a membrane fraction containing hERG channel protein and a high-affinity red fluorescent hERG channel ligand in black 384-well plate. […] The IC50 values were calculated using GraphPad Prism.

Sequence of recombinant human CHIT1 (Q13231 22-466): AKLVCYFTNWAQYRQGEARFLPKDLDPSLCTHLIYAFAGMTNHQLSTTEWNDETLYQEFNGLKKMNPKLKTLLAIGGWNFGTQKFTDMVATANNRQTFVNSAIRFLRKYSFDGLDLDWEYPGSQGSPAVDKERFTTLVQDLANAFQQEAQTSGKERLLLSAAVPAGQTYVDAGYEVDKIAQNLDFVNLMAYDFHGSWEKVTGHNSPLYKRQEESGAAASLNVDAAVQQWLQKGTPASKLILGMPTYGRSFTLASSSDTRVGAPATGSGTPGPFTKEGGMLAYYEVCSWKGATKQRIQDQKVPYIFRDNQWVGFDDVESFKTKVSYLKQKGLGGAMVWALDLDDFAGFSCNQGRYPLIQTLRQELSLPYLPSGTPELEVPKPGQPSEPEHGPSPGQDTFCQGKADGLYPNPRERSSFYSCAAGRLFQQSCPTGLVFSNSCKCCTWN
Sequence of hERG channel (Q12809 whole entry): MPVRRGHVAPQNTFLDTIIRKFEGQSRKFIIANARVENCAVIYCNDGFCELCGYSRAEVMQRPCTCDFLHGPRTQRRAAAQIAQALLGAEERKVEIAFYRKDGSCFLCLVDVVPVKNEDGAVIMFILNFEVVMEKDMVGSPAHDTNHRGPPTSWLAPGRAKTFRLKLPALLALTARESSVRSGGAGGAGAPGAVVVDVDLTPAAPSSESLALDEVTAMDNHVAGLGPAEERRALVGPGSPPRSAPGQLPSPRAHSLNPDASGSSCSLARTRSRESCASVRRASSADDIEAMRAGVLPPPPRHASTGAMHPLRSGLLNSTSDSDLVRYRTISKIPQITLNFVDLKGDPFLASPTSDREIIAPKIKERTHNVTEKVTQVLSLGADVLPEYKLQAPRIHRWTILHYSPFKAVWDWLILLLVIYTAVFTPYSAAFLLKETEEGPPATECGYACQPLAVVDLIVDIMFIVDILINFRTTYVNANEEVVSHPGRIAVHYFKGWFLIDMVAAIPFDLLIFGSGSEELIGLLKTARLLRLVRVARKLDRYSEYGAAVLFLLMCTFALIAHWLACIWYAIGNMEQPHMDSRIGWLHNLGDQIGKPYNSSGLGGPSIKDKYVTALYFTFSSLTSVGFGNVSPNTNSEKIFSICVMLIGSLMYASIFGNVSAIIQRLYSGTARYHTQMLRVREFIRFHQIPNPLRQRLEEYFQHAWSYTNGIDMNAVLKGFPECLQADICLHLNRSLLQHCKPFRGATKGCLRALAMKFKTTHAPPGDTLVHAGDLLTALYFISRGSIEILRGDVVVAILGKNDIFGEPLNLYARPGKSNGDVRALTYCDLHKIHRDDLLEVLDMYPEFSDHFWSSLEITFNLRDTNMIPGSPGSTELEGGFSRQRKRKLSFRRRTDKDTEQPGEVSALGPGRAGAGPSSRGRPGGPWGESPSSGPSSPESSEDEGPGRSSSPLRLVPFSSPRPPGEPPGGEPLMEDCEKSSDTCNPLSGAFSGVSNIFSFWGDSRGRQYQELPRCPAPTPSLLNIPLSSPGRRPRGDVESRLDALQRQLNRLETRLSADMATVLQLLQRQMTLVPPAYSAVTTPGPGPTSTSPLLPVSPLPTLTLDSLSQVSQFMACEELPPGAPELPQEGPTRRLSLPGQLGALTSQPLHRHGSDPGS
Sequence of recombinant human AMCase (Q9BZP6 22-476): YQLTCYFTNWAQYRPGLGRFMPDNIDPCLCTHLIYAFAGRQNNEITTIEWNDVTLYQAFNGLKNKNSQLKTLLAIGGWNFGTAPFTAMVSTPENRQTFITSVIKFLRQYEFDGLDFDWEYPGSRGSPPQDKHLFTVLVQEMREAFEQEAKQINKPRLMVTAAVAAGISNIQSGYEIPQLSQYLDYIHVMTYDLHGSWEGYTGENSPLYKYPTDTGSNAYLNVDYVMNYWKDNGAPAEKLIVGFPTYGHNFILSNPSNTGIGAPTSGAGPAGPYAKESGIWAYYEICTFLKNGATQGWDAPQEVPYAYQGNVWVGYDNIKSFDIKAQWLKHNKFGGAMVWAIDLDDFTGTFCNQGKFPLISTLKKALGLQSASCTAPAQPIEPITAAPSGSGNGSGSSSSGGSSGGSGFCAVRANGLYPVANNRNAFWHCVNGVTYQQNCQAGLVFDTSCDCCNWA

Row | Compound | IC50 (recombinant human CHIT1) [nM] | IC50 (recombinant human AMCase) [nM] | IC50 (hERG channel) [nM]
1 | Cc1cc([C@H]2CN(C3CCN(c4nnc(N)[nH]4)CC3)[C@@H](Cc3ccc(Cl)cc3)CO2)on1 [Example 22, 5-(4-((2R,5S)-5-(4-chlorobenzyl)-2-(3-methylisoxazol-5-yl)morpholino)piperidin-1-yl)-4H-1,2,4-triazol-3-amine 2,2,2-trifluoroacetate] | < 100 | < 100 | > 100000
2 | Nc1nnc(N2CCC(N3C[C@H](CN4CCCC4)OC[C@@H]3Cc3ccc(Cl)cc3)CC2)[nH]1 [Example 28, 5-(4-((2S,5S)-5-(4-chlorobenzyl)-2-(pyrrolidin-1-ylmethyl)morpholino)piperidin-1-yl)-4H-1,2,4-triazol-3-amine 2,2,2-trifluoroacetate] | < 100 | < 100 | > 100000
3 | Nc1nnc(N2CCC(N3CC(F)(F)CC[C@@H]3Cc3ccc(Cl)cc3)CC2)[nH]1 [Example 57, (R)-5-(2-(4-chlorobenzyl)-5,5-difluoro-[1,4′-bipiperidin]-1′-yl)-4H-1,2,4-triazol-3-amine 2,2,2-trifluoroacetate] | < 100 | < 100 | > 100000
4 | CC(C)(C)NC(=O)[C@H]1CN(C2CCN(c3nnc(N)[nH]3)CC2)[C@@H](Cc2ccc(Cl)cc2)CO1 [Example 66, (2R,5S)-4-(1-(5-amino-4H-1,2,4-triazol-3-yl)piperidin-4-yl)-N-(tert-butyl)-5-(4-chlorobenzyl)morpholine-2-carboxamide 2,2,2-trifluoroacetate] | 100 to 1000 | < 100 | > 100000
5 | Nc1nnc(N2CCC(N3C[C@H](C(=O)N4CC(F)C4)OC[C@@H]3Cc3ccc(Cl)cc3)CC2)[nH]1 [Example 62, ((2R,5S)-4-(1-(5-amino-4H-1,2,4-triazol-3-yl)piperidin-4-yl)-5-(4-chlorobenzyl)-morpholin-2-yl)(3-fluoroazetidin-1-yl)methanone 2,2,2-trifluoroacetate] | < 100 | < 100 | > 100000
6 | Nc1nnc(N2CCC(N3C[C@H](CN4CC(F)C4)OC[C@@H]3Cc3ccc(Cl)cc3)CC2)[nH]1 [Example 37, 5-(4-((2S,5S)-5-(4-chlorobenzyl)-2-((3-fluoroazetidin-1-yl)methyl)morpholino)-piperidin-1-yl)-4H-1,2,4-triazol-3-amine 2,2,2-trifluoroacetate] | < 100 | < 100 | 25000 to 100000
7 | CC(C)NC(=O)[C@H]1CN(C2CCN(c3nnc(N)[nH]3)CC2)[C@@H](Cc2ccc(Cl)cc2)CO1 [Example 65, (2R,5S)-4-(1-(5-amino-4H-1,2,4-triazol-3-yl)piperidin-4-yl)-5-(4-chlorobenzyl)-N-isopropylmorpholine-2-carboxamide 2,2,2-trifluoroacetate] | 100 to 1000 | < 100 | > 100000
8 | CC(C)CNC(=O)[C@H]1CN(C2CCN(c3nnc(N)[nH]3)CC2)[C@@H](Cc2ccc(Cl)cc2)CO1 [Example 69, (2R,5S)-4-(1-(5-amino-4H-1,2,4-triazol-3-yl)piperidin-4-yl)-5-(4-chlorobenzyl)-N-isobutylmorpholine-2-carboxamide 2,2,2-trifluoroacetate] | < 100 | < 100 | 25000 to 100000
9 | Nc1nnc(N2CCC(N3C[C@H](Cn4cccn4)OC[C@@H]3Cc3ccc(Cl)cc3)CC2)[nH]1 [Example 13, 5-(4-((2R,5S)-2-((1H-pyrazol-1-yl)methyl)-5-(4-chlorobenzyl)morpholino)-piperidin-1-yl)-4H-1,2,4-triazol-3-amine 2,2,2-trifluoroacetate] | < 100 | < 100 | > 100000
10 | C[C@H]1CN(C2CCN(c3nnc(N)[nH]3)CC2)[C@@H](Cc2ccc(Br)cc2)CO1 [Example 75, 5-(4-((2S,5S)-5-(4-bromobenzyl)-2-methylmorpholino)piperidin-1-yl)-4H-1,2,4-triazol-3-amine 2,2,2-trifluoroacetate] | < 100 | < 100 | 1000 to 10000
11 | Cn1nccc1[C@H]1CN(C2CCN(c3nnc(N)[nH]3)CC2)[C@@H](Cc2ccc(Cl)cc2)CO1 [Example 10, 5-(4-((2R,5S)-5-(4-chlorobenzyl)-2-(1-methyl-1H-pyrazol-5-yl)morpholino)piperidin-1-yl)-4H-1,2,4-triazol-3-amine 2,2,2-trifluoroacetate] | < 100 | < 100 | > 100000
12 | C[C@@H](O)[C@H]1CN(C2CCN(c3nnc(N)[nH]3)CC2)[C@@H](Cc2ccc(Cl)cc2)CO1 [Example 67, (R)-1-((2R,5S)-4-(1-(5-amino-4H-1,2,4-triazol-3-yl)piperidin-4-yl)-5-(4-chlorobenzyl)morpholin-2-yl)ethanol 2,2,2-trifluoroacetate] | < 100 | < 100 | > 100000
13 | CNS(=O)(=O)CCNC(=O)[C@H]1CN(C2CCN(c3nnc(N)[nH]3)CC2)[C@@H](Cc2ccc(Cl)cc2)CO1 [Example 46, (2R,5S)-4-(1-(5-amino-4H-1,2,4-triazol-3-yl)piperidin-4-yl)-5-(4-chlorobenzyl)-N-(2-(N-methylsulfamoyl)ethyl)morpholine-2-carboxamide 2,2,2-trifluoroacetate] | < 100 | < 100 | > 100000
14 | CC(F)[C@H]1CN(C2CCN(c3nnc(N)[nH]3)CC2)[C@@H](Cc2ccc(Cl)cc2)CO1 (relative stereo) [Example 20, 5-(4-((2R,5S)-5-(4-chlorobenzyl)-2-(1-fluoroethyl)morpholino)piperidin-1-yl)-4H-1,2,4-triazol-3-amine 2,2,2-trifluoroacetate] | < 100 | < 100 | > 100000
15 | CC1CN(C[C@H]2CN(C3CCN(c4nnc(N)[nH]4)CC3)[C@@H](Cc3ccc(Cl)cc3)CO2)C1 [Example 51, 5-(4-((2S,5S)-5-(4-chlorobenzyl)-2-((3-methylazetidin-1-yl)methyl)morpholino)-piperidin-1-yl)-4H-1,2,4-triazol-3-amine 2,2,2-trifluoroacetate] | 100 to 1000 | < 100 | 25000 to 100000
16 | Nc1nnc(N2CCC(N3C[C@H](N4CCOCC4)C[C@@H]3Cc3ccc(Cl)cc3)CC2)[nH]1 [Example 55, 5-(4-((2S,4R)-2-(4-chlorobenzyl)-4-morpholinopyrrolidin-1-yl)piperidin-1-yl)-4H-1,2,4-triazol-3-amine 2,2,2-trifluoroacetate] | < 100 | < 100 | 25000 to 100000
17 | Nc1nnc(N2CCC(N3C[C@H](Cc4nn[nH]n4)OC[C@@H]3Cc3ccc(Cl)cc3)CC2)[nH]1 [Example 4, 5-(4-((2S,5S)-2-((2H-tetrazol-5-yl)methyl)-5-(4-chlorobenzyl)morpholino)-piperidin-1-yl)-4H-1,2,4-triazol-3-amine 2,2,2-trifluoroacetate] | < 100 | < 100 | > 100000
18 | Nc1nnc(N2CCC(N3C[C@H](Cn4ccnc4)OC[C@@H]3Cc3ccc(Cl)cc3)CC2)[nH]1 [Example 47, 5-(4-((2R,5S)-2-((1H-imidazol-1-yl)methyl)-5-(4-chlorobenzyl)morpholino)-piperidin-1-yl)-4H-1,2,4-triazol-3-amine 2,2,2-trifluoroacetate] | < 100 | < 100 | 10000 to 25000
19 | CC1CN(C(=O)[C@H]2CN(C3CCN(c4nnc(N)[nH]4)CC3)[C@@H](Cc3ccc(Cl)cc3)CO2)C1 [Example 61, ((2R,5S)-4-(1-(5-amino-4H-1,2,4-triazol-3-yl)piperidin-4-yl)-5-(4-chlorobenzyl)-morpholin-2-yl)(3-methylazetidin-1-yl)methanone 2,2,2-trifluoroacetate] | < 100 | < 100 | > 100000
20 | Nc1nnc(N2CCC(N3C[C@H](CN4CCCC4=O)OC[C@@H]3Cc3ccc(Cl)cc3)CC2)[nH]1 [Example 7, 1-(((2R,5S)-4-(1-(5-amino-4H-1,2,4-triazol-3-yl)piperidin-4-yl)-5-(4-chlorobenzyl)-morpholin-2-yl)methyl)pyrrolidin-2-one 2,2,2-trifluoroacetate] | < 100 | < 100 | > 100000
21 | Nc1nnc(N2CCC(N3C[C@H](C(=O)N4CCOCC4)OC[C@@H]3Cc3ccc(Cl)cc3)CC2)[nH]1 [Example 63, ((2R,5S)-4-(1-(5-amino-4H-1,2,4-triazol-3-yl)piperidin-4-yl)-5-(4-chlorobenzyl)-morpholin-2-yl)(morpholino)methanone 2,2,2-trifluoroacetate] | 100 to 1000 | < 100 | > 100000
